Measured values: the NIST ThermoML archive (doi:10.1016/j.tca.2008.10.019)
Numbers after ± are expanded uncertainties.

How the values were obtained:
[1] = Crystal; DTA
[2] = Molar enthalpy of transition or fusion; settings: Crystal; DSC

Normal melting temperature [1]: 170.00 ± 0.5 °C | Molar enthalpy of transition or fusion [2]: 5.55 ± 0.172 kcal/mol
SMILES: NC(=O)CC(N)=O [1,3-propanedioic acid, diamide]
